{
  "source": "patent US5759836A",
  "about": "“Osteoarthritis-associated inducable isoform of nitric oxide synthetase” (priority 1995, dated 1998)",
  "key": {"iNOS": {"tested_on": "iNOS", "test": "Nitrite accumulation in LPS-stimulated RAW 264.7 murine macrophages (Griess method)", "format": "cell-based", "details": "Mus musculus, RAW264.7; 30 μM; read-out: block of nitrite accumulation", "method": "Effects of NSAIDs on Nitrite Accumulation. […] The expression and activity of iNOS were monitored by estimation of the stable end-product: nitrites.\nconcentrations of NSAIDs for 2 h followed by addition of 100 ng/ml of LPS\nAfter 16-18 h of incubation, the medium was used to estimate the\naccumulation of nitrite by the Greiss method (Green et al., Anal Biochem.\nThe specific activity of iNOS was determined in cellfre\nextracts at a given time period as described. The nitrite and specific\nactivity data are representative of mean ± SD value, as determined by\nstudent t test, for 10 and 4 independent experiments, respectively. The p\nvalues described are compared with LPSstimulated cells. […]"}, "murine iNOS": {"tested_on": "murine iNOS", "test": "Sensitivity of murine iNOS to PDTC"}, "OA-NOS [1]": {"tested_on": "OA-NOS", "test": "Nitrite release by OA-affected articular cartilage, ex vivo organ culture", "format": "cell-based, human", "details": "Homo sapiens; cycloheximide 35 μM or PDTC 30 μM, 24 h; cytokine/endotoxin-induced and control cartilage; read-out: block of nitrite accumulation"}, "human iNOS [2]": {"tested_on": "human iNOS", "test": "Sensitivity of human iNOS to PDTC"}, "OA-NOS [3]": {"tested_on": "OA-NOS", "test": "Sensitivity of OA-NOS to agents (Table 3 comparison)"}, "NF-κB": {"tested_on": "NF-κB", "details": "30 μM; cited from earlier work"}, "calmodulin": {"tested_on": "calmodulin", "test": "Calmodulin binding of NOS isoforms", "method": "Extraction of Human Chondrocyte NOS and Western Blotting. Slices from articular cartilage affected by OA were frozen at -70° C., milled to fine particulate in liquid nitrogen, and sequentially extracted (10 ml/gram wet weight tissue) with neutral salt buffer (Tris HCl:saline) containing protease inhibitors (1 mM PMSF, 2 mM N-ethylmaleimide, and 0.025 mg/ml leupeptin), followed with the same buffer containing 10 mM EDTA, with 4 M guanidine-HCl, and then with a detergent buffer containing 10% SDS with protease inhibitors. Samples were run on 9% or 4-15% gradient SDS-PAGE gels under non-reducing conditions, transferred to nitrocellulose, and Western blotted with α-iNOS/α-ncNOS or α-calmodulin mAb (Cho et al., J. Exp. Med. 176:599-604, 1992). Bound antibody was detected by a secondary antibody conjugated with horseradish peroxidase, and developed using the ECL Western blotting system (Amersham, Arlington Heights, Ill.) on Kodak Xomatic X-ray film."}, "human iNOS [4]": {"tested_on": "human iNOS", "details": "crude lysates; cited from earlier work"}, "human chondrocyte NOS": {"tested_on": "human chondrocyte NOS", "details": "cited from earlier work"}},
  "note": "“Also recorded” adds a separate entry of the source.",
  "data": [
    {"compound": "S=C(S)N1CCCC1", "note": "[PDTC, pyrrolidine dithiocarbamate]", "values": [
      {"measurement": "inhibition at 30 µM", "setting": "iNOS", "value": "> 90", "unit": "%"},
      {"measurement": "effect on murine iNOS", "setting": "murine iNOS", "value": "blocks murine iNOS"},
      {"measurement": "inhibition at 30 µM", "setting": "OA-NOS [1]", "value": "> 90", "unit": "%"},
      {"measurement": "effect on human iNOS", "setting": "human iNOS [2]", "value": "not human iNOS"},
      {"measurement": "sensitivity of OA-NOS", "setting": "OA-NOS [3]", "value": "blocked; also recorded: shows sensitivity"},
      {"measurement": "inhibition of NF-κB as component of iNOS transcription/expression", "setting": "NF-κB", "value": "inhibited"}
    ]},
    {"compound": "human hepatocyte iNOS: obtained from NIH 3T3 fibroblasts transduced with a retrovirus carrying the human hepatocyte iNOS cDNA", "values": [
      {"measurement": "Calmodulin binding", "setting": "calmodulin", "value": "complexed with calmodulin"}
    ]},
    {"compound": "O=C(O)CN(CCOCCOCCN(CC(=O)O)CC(=O)O)CC(=O)O", "note": "[EGTA]", "values": [
      {"measurement": "human iNOS activity", "setting": "human iNOS [4]", "value": "markedly reduces"},
      {"measurement": "enzyme activity in cell-free extracts", "setting": "human chondrocyte NOS", "value": "no effect on enzyme activity"}
    ]}
  ]
}
